3 compounds from BindingDB's records for patent US20240043427 (Gilead Sciences, 2024) can be followed below.

SMILES strings stand for the structures.

The target of this assay is 5'-nucleotidase (Homo sapiens, UniProt P21589). The assay is described as follows: CD73 Biochemical IC50 Assay. The method, then: Compound serial dilutions were pre-spotted into Thermo Nunc assay plate. 50 uL CD73 enzyme buffer (CD73 purchased from R&D system=0.6 nM, 25 mM Tris, pH 7.4, 5 mM MgCl2, 1 mM NaH2PO4) was added into the assay plate and incubate for 15 mins. […] The samples were analyzed using Rapid fire.
Sequence of 5'-nucleotidase (P21589 whole entry): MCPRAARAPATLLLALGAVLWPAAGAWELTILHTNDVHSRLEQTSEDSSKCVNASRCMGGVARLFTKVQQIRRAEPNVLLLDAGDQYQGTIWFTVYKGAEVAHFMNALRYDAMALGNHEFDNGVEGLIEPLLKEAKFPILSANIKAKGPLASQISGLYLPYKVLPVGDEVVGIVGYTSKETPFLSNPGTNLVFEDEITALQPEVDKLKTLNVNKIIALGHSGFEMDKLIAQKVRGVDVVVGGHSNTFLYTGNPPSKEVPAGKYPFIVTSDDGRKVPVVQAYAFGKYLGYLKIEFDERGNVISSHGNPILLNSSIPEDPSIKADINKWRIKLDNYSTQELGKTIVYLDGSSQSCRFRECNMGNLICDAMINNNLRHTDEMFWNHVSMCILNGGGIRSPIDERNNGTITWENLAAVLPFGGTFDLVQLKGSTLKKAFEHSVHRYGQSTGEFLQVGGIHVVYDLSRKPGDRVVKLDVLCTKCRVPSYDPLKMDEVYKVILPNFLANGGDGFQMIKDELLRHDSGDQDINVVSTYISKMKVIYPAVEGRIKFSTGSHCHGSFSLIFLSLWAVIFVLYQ
The IC50 is the concentration that gives 50% inhibition. A higher IC50 goes with weaker potency in that assay. In turn, `O=c1[nH]cc(-c2cc(N3CC4CC(F)(C4)C3)c3nccn3n2)c(=O)[nH]1` [US20240043427, Example 579] came in with an IC50 of 19.1 nM.
Then `CC(C)(C)COc1cc(-c2c[nH]c(=O)[nH]c2=O)nn2ccnc12` [US20240043427, Example 679], with 67.9 nM; and `O=c1[nH]cc(-c2cc([C@H]3C[C@@H]3c3ccc4cnn(CC(F)(F)F)c4c3F)c3ncc(F)n3n2)c(=O)[nH]1` [US20240043427, Example 630], with 0.32 nM.
